From publication PMC11684029, “Discovery of VU6024578/BI02982816: An mGlu1 Positive Allosteric Modulator with Efficacy in Preclinical Antipsychotic and Cognition Models” (Journal of Medicinal Chemistry, 2024)
Like-named read-outs stand apart in the source and are kept apart here.

Key:
male beagles = assay: adverse events in dog PK; format: in vivo; conditions: 0.5 mg/kg IV
Experimental: (§1) Deeper profiling began with IV dog PK (0.5 mg/kg, n = 3 male beagles). […] Was this a mechanism-based toxicity in dog? Could there be dog-specific pharmacology of mGlu1 activation? Were these AEs derived from the 19d chemotype? Could a mGlu1/mGlu5 heterodimer be responsible for the observed AEs? […] In an attempt to address the chemotype question, we evaluated PAM 4 (VU6004909),[8] an early generation rodent in vivo tool compound, for the first time in dog PK. […] of the study with 19d, PAM 4 produced no AEs in dog. […] Therefore, more molecular pharmacology and PK studies as well as additional chemically distinct mGlu1 PAM chemotypes are required to understand the AEs elicited by an mGlu1 PAM in dogs, an otherwise very promising target for the treatment of schizophrenia.

dog mGlu1 = dog mGlu1 (Canis lupus familiaris, UniProt A0A8I3NTE8); assay: mGlu1 PAM assay, dog receptor; format: cell-based
dog mGlu1, sequence (A0A8I3NTE8 30-1195): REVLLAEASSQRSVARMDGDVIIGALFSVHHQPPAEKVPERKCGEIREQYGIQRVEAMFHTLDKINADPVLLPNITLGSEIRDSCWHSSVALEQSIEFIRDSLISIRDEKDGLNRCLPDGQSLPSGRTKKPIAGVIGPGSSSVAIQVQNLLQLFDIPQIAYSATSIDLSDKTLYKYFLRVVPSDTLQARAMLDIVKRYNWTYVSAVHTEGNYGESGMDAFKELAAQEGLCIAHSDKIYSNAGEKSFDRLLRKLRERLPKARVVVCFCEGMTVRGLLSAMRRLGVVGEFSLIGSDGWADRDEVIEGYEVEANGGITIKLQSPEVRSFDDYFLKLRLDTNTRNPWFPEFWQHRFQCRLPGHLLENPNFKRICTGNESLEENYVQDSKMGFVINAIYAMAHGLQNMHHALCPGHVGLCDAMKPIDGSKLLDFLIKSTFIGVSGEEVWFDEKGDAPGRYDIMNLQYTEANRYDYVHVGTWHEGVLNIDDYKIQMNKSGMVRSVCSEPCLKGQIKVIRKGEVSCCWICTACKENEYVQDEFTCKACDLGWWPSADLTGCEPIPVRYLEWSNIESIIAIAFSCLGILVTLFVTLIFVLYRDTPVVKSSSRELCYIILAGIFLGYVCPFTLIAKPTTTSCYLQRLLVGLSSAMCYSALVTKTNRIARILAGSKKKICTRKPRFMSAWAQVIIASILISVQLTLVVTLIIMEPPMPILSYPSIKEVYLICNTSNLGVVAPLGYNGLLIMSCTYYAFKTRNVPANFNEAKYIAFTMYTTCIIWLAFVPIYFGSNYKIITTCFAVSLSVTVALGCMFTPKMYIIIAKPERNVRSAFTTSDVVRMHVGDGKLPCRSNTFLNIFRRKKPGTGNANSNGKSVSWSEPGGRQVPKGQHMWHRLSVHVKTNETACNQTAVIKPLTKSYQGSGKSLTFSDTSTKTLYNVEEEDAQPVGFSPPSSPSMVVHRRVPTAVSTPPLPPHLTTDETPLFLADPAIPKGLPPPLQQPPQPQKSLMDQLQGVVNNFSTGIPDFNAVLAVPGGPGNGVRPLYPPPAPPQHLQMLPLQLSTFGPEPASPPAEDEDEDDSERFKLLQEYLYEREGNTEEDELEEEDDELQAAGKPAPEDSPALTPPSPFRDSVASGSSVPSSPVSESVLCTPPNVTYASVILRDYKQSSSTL

mGlu4 = tested on: mGlu4; set-up: method as in PMID 30116027, PMID 34731619, PMID 35643819, PMID 25137254, PMID 11606768; conditions: Figure 1; cited from earlier work
IV dog PK = format: in vivo; conditions: male, beagle, plasma, 0.5 mg/kg IV; for C0: iv, 0.5 mg/kg
Experimental: as §1

EC50 (dog mGlu1): 400 nM
half-life (IV dog PK): 16.8 h
clearance (IV dog PK; read-out: CLp): 14 mL/min/kg
Vd (IV dog PK; read-out: Vss): 12 L/kg
C0 (IV dog PK; read-out: C0 exposure, total): 1100 nM
C0 (IV dog PK; read-out: C0 exposure, unbound): 36.4 nM
Structure (SMILES): Cc1ccc2c(c1)C(=O)N(c1ccc(NC(=O)c3occc3C)c(F)c1)C2=O [Compound 4, reference compound]
adverse events (AEs) in dog (male beagles): no AEs
selectivity vs. mGlu4 (mGlu4): ~ 790 fold
